What was measured:
[1] = biological target: T1, Casein kinase I isoform alpha (Homo sapiens, UniProt P48729); experiment: CSNK1A1 1uM ATP Assay
Procedure: The concentration of CSNK1A1 was adjusted depending of the activity of the enzyme lot and was chosen appropriate to have the assay in the linear range, a typical concentration is about 0.4 ng/μL. The reaction was stopped by the addition of 2.5 μL of ADP-Glo-reagent (1:1.5 fold diluted with water) and the resulting mixture was incubated at 22° C. for 1 h to convert the ATP not consumed in the kinase reaction completely to […]. […] The amount of emitted light was taken as a measure for the amount of ADP generated and thereby for the activity of the CSNK1A1.

[2] = biological target: Casein kinase I isoform delta (Homo sapiens, UniProt P48730); experiment: CSNK1D Assay
Casein kinase I isoform delta, sequence (P48730 whole entry, canonical isoform): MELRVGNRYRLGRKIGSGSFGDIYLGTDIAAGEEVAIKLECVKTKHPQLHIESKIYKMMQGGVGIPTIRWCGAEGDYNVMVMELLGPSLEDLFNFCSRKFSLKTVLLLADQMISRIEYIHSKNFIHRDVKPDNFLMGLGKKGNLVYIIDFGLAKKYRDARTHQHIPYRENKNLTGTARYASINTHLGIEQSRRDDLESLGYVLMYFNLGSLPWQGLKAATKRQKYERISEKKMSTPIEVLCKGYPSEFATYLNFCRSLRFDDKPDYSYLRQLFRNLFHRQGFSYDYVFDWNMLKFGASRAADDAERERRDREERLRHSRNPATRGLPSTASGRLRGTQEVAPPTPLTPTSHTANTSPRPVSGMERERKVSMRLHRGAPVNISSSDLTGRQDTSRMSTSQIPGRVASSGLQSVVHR
Procedure: As substrate for the kinase reaction the biotinylated peptide Btn-Ahx-[…] […] The concentration of CSNK1D was adjusted depending of the activity of the enzyme lot and was chosen appropriate to have the assay in the linear range, a typical concentration is about 0.5 ng/μL. The reaction was stopped by the addition of 2.5 μL of “ADP-Glo-reagent” (1:1.5 fold diluted with water) and the resulting mixture was incubated at 22° C. for 1 h to convert the ATP not consumed in the kinase reaction completely to […]. […] The amount of emitted light was taken as a measure for the amount of ADP generated and thereby for the activity of the CSNK1D.

[3] = biological target: Epidermal growth factor receptor (Homo sapiens, UniProt P00533); experiment: WT-EGFR Kinase Assay
Epidermal growth factor receptor, sequence (P00533 whole entry): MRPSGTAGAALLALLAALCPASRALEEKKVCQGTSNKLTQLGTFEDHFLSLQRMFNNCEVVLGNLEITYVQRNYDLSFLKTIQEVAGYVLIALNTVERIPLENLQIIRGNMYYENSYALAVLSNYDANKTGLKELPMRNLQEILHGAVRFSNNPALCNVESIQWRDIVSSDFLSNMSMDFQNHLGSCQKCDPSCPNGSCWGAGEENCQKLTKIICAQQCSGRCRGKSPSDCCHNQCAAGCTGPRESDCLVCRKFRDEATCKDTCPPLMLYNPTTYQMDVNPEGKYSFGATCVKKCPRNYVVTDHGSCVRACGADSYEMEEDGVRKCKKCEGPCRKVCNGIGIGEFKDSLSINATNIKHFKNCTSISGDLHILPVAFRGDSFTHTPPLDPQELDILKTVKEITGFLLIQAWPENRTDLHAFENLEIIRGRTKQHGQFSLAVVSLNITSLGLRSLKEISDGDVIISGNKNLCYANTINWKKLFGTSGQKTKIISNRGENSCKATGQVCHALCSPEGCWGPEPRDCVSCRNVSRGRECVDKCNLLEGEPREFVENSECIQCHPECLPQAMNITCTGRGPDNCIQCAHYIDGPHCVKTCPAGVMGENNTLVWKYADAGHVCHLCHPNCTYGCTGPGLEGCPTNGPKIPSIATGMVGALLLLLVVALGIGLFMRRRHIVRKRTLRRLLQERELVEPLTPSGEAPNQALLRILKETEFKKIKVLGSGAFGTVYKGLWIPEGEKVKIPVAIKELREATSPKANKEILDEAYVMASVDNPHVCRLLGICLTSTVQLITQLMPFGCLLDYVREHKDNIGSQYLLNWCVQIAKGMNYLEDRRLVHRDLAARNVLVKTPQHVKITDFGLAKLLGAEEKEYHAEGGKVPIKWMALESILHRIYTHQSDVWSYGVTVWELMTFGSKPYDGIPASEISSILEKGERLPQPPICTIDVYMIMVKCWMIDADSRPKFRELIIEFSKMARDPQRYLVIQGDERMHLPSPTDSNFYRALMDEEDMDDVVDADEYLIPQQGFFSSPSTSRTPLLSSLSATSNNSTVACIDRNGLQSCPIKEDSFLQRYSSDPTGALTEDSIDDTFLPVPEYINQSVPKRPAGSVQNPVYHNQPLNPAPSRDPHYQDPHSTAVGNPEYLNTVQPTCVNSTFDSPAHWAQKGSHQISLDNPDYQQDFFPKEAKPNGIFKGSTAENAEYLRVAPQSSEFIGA
Procedure: For the assay 50 nl of a 100 fold concentrated solution of the test compound in DMSO was pipetted into either a black low volume 384 well microtiter plate or a black 1536 well microtiter plate (both Greiner Bio-One, Frickenhausen, Germany), 2 μL of a solution of EGFR in aqueous assay buffer [50 mM Hepes pH 7.0, 10 mM MgCl2, 1 mM dithiothreitol, 0.5 mM EGTA, 0.3 mM activated sodium ortho-vanadate, 0.005% (w/v) bovine serum albumin, 0.005% (v/v) Tween-20] were added and the mixture was incubated for 15 min at 22° C. to allow pre-binding of the test compounds to the enzyme before the start of the kinase reaction. […] The concentration of EGFR was adjusted depending of the activity of the enzyme lot and was chosen appropriate to have the assay in the linear range, typical concentration was […]. The reaction was stopped by the addition of 3 μL of a solution of HTRF detection reagents (83.3 nM streptavidine-XL665 [Cisbio Bioassays, Codolet, France] and 1.67 nM PT66-Tb-Cryptate, a terbium-cryptate labelled anti-phospho-tyrosine antibody from Cisbio Bioassays [instead of the PT66-Tb-cryptate PT66-Eu-Chelate from Perkin Elmer can also be used]) in an aqueous EDTA-solution (133.3 mM EDTA, 0.2% (w/v) bovine serum albumin in 50 mM HEPES pH 7.5).

[4] = biological target: T1, Casein kinase I isoform alpha; experiment: CSNK1A1 High ATP Assay
Excerpt: Recombinant fusion protein of N-terminal Glutathion-S-Transferase (GST) and full-length human CSNK1A1, expressed by baculovirus infected insect cells and purified via Glutathion affinity chromatography, was purchased from Life Technologies (product no. PV4174) and used as enzyme. As substrate for the kinase reaction the biotinylated peptide biotin-Ahx-KRRRAL-pS-VASLPGL (C-terminus in amide form) was used which can be purchased e.g. from the company Biosyntan (Berlin-Buch, Germany).[2164]For the assay 50 nl of a 100 fold concentrated solution of the test compound in DMSO was pipetted into a white low volume 384-well microtiter plate (Greiner Bio-One, Frickenhausen, Germany), 2 μL of a solution of CSNK1A1 in aqueous assay buffer [50 mM HEPES pH 7.5, 10% (v/v) glycerol, 10 mM MgCl2, 50 mM NaCl, 1 mM dithiothreitol, 0.01% (w/v) bovine serum albumin, 0.01% (v/v) Triton X-100] were added and the mixture was incubated for 15 min at 22° C. to allow pre-binding of the test compounds to the enzyme before the start of the kinase reaction. […] The concentration of CSNK1A1 was adjusted depending of the activity of the enzyme lot and was chosen appropriate to have the assay in the linear range, a typical concentration is about 0.4 ng/μL. The reaction was stopped by the addition of 2.5 μL of ADP-Glo-reagent (1:1.5 fold diluted with water) and the resulting mixture was incubated at 22° C. for 1 h to convert the ATP not consumed in the kinase reaction completely […]. Subsequently 2.5 μL of the kinase detection reagent (1.2 fold more concentrated than recommended by the producer) were added, the resulting mixture was incubated at 22° C. for 1 h and then the luminescence measured with a suitable measurement instrument (e.g. Viewlux™ from Perkin-Elmer). The amount of emitted light was taken as a measure for the amount of ADP generated and thereby for the activity of the CSNK1A1.

T1 sequence (P48729 whole entry, canonical isoform): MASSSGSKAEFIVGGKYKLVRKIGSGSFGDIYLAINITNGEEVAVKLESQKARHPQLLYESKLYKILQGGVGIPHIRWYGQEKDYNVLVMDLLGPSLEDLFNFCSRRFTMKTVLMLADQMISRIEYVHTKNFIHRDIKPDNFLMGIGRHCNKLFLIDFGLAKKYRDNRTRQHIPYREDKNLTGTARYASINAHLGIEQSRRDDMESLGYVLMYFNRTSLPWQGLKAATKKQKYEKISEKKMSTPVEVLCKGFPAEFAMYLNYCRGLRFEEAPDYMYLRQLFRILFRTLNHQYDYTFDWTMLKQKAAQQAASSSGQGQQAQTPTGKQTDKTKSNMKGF

| Compound | IC50 [1] | IC50 [2] | IC50 [3] | IC50 [4] |
| --- | --- | --- | --- | --- |
| Cn1ccc2[nH]c(-c3ccnc(NC(=O)Cc4ccc(F)cc4)c3)c(-c3ccccc3)c2c1=O [US20230322767, Example 5] | 0.86 nM | 2.5 nM | > 20000 nM | – |
| CN1CCc2[nH]c(-c3ccnc(NC(=O)C4CC4)c3)c(Nc3ccccc3)c2C1=O | – | – | 42.6 nM | < 3.43 nM |
| CN1CCc2[nH]c(-c3ccnc(NC(=O)[C@H]4C[C@H]4F)c3)c(Nc3ccccc3)c2C1=O (relative stereo; form 2) [US20230322767, Example No. 25 WO 2016/120196] | – | – | 321 nM | 62.5 nM |
| CN1CCc2[nH]c(-c3ccnc(NC(=O)[C@H]4C[C@H]4F)c3)c(Nc3ccccc3)c2C1=O (relative stereo; form 1) [US20230322767, Example No. 40 WO 2016/120196] | – | – | 85.5 nM | 24.1 nM |
| O=c1[nH]ccc2[nH]c(-c3ccncc3F)c(Nc3ccccc3)c12 [US20230322767, Example No. 16 WO 2016/120196] | – | – | 303 nM | 40.3 nM |

From BindingDB's records for patent US20230322767 (Bayer Aktiengesellschaft, 2023)
